For 51 compounds, activation and EC50 results are on record in US9938262B2, “Benzamides” (Merck Patent GmbH, priority 2011, dated 2018).

pEC50: −log10 of the molar value.

The target of the first experiment is T1, FSHR (Homo sapiens, UniProt P23945).
T1 construct: expressed in transfected cells; host or cells: CHO (Cho-FSHR-LUC-1-1-43)
T1 sequence (P23945 18-695): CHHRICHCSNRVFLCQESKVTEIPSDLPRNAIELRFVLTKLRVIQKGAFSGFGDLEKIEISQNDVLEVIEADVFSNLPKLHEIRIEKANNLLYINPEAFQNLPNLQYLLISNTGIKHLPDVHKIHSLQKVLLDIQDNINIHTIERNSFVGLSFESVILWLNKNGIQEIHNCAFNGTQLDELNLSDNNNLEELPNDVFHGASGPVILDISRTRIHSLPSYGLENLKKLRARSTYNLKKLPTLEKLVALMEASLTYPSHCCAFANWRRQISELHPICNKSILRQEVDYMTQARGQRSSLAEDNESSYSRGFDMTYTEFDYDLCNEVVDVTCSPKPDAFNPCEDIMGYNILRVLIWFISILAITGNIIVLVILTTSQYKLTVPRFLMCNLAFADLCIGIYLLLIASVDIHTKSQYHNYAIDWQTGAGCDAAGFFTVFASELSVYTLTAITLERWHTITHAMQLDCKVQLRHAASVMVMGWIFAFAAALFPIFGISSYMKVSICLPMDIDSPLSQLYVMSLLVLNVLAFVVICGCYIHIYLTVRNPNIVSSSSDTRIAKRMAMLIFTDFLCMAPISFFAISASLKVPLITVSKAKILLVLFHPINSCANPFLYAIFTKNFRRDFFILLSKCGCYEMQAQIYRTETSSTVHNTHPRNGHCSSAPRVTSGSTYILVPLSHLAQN
T1 sequence (P01215 25-116 partner): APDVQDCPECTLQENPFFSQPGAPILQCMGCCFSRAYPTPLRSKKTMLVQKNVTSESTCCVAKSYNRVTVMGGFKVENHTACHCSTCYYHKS
T1 sequence (P01225 19-129 partner): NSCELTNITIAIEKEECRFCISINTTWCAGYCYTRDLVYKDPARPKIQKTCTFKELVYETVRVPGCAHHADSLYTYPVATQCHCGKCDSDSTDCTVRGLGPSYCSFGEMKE
Briefly: EC50 of cyclic AMP production in CHO FSHR cells + EC20 FSH (Assay A). Format: cell-based. As to conditions: 1 h; 5 μM; effect relative to maximum response of the FSH standard; Table 1. As to the method:
Example 10: EC50 of Cyclic AMP Production in CHO FSHR Cells+EC20 FSH (Assay A)
2500 Cho-FSHR-LUC-1-1-43 cells were plated per well in 5 μl of phenol red free DMEM/F12+1% FBS. Cells were plated in 384 well, solid white low volume plates (Greiner 784075) by Multidrop. Cells were assayed by adding 100 μl of 2×EC20 FSH/IBMX in DMEM/F12+0.1% BSA) by Multidrop to 2 μl of test compound stamped in 384 well plates (compounds are diluted 1:50). The final FSH concentration was […], and the final IBMX concentration was 200 μM. The compound plate map was as follows: Column 1: 2 μl of DMSO; Column 2: 2 μl of DMSO; Columns 3-12 and 13-24: 2 μl of test compound, diluted 1:4 in 100% DMSO, or 2 μl of FSH, diluted 1:4 in DMEM/F12+0.1% BSA. The starting concentration for FSH was 50 nM (final concentration was 0.5 nM). […] 5 μl of compound+EC20 FSH mixture were transferred to cell plates (1:2 dilution into 5 μl of cell media) The plates were incubated at 37° C. for 1 h. 10 μl of mixed HTRF (CisBio #62AM4PEC) reagents were added per well and incubated at room temperature for 1 h. The plates were read on Envision using the cAMP HTRF—low volume 384 well protocol. The readout was the calculated fluorescence ratio (665 nm/620 nm). Values given in percent (%) indicate the percental effect (response) at a certain concentration of agonist relative to the maximum response of the FSH standard.
For the compound `Cc1ccccc1N1CCN(c2ccc(C(=O)NCCc3c[nH]c4ccccc34)cc2NC(=O)c2ccco2)CC1` [Compound 10, Furan-2-carboxylic acid [5-[2-(1H-indol-3-yl)-ethylcarbamoyl]-2-(4-o-tolyl-piperazin-1-yl)-phenyl]-amide], the activation at 5 µM came out at 39%.
With `Cc1ccc(C(=O)Nc2cc(C(=O)NCCCCCCNC(=O)OC(C)(C)C)ccc2N2CCN(c3ccccc3C)CC2)o1` [Compound 196], the activation at 5 µM is 22%.
As to `C[C@H]1CN(c2ccc(C(=O)NCCCN3CCCC3=O)cc2NC(=O)c2coc(C3CC3)n2)CCN1Cc1ccccc1C(F)(F)F` [Compound 257], the activation at 5 µM is 21%.
Take `Cc1ccc(N2CCN(c3ccc(C(=O)NCCCN4CCCC4=O)cc3NC(=O)c3coc(C4CC4)n3)CC2)cc1` [Compound 245]: the activation at 5 µM came out at 12%.
Same read-out and setting: next, `COc1ccccc1N1CCN(c2ccc(C(=O)NCCCN3CCCC3=O)cc2NC(=O)c2ccco2)CC1` [Compound 166]: 20%.

The experiment is the same for the next values; noted with them: CHO FSHR cells + EC20 FSH; Table 1; read-out: Assay A EC50 of cyclic AMP production.
For the compound `COc1ccc(CNC(=O)c2ccc(N3CCN(c4ccccc4C)CC3)c(NC(=O)c3ccc(C)o3)c2)cc1OC` [Compound 171, 5-Methyl-furan-2-carboxylic acid [5-(3,4-dimethoxy-benzylcarbamoyl)-2-(4-o-tolyl-piperazin-1-yl)-phenyl]-amide], the pEC50 is 5.00 to 6.00.
On to `Cc1ccc(C(=O)Nc2cc(C(=O)NCCCN3CCCC3=O)ccc2N2CCN(c3ccccc3C)CC2)s1` [Compound 162], for which the negative-log EC50 (pEC50) was 6.00 to 7.00.
On to `Cc1ccccc1N1CCN(c2ccc(C(=O)NCCCN3CCCC3=O)cc2NC(=O)c2scnc2C)CC1` [Compound 70], for which the pEC50 is < 5.00.
As to `Cc1ccccc1N1CCN(c2ccc(C(=O)NCCCN3CCCC3=O)cc2NC(=O)c2ccccc2Cl)CC1` [Compound 19], the pEC50 is 5.00 to 6.00.
On to `COc1ccc(C(=O)Nc2cc(C(=O)NCCCN3CCCC3=O)ccc2N2CCN(c3ccccc3C)CC2)c(OC)c1` [Compound 59], for which the pEC50 was 5.00 to 6.00.
On the same count and under the same terms, the value for `Cc1ccccc1N1CCN(c2ccc(C(=O)NCCS(=O)(=O)N3CCCC3)cc2NC(=O)c2ccco2)CC1` [Compound 119] was 6.00 to 7.00; that for `Cc1ccccc1N1CCN(c2ccc(C(=O)NCCCc3ccncc3)cc2NC(=O)c2ccco2)CC1` [Compound 153] was 6.00 to 7.00.
For the compound `Cc1ccccc1N1CCN(c2ccc(C(=O)N[C@@H](C)C(=O)NC3CCCC3)cc2NC(=O)c2ccco2)CC1` [Compound 91], the pEC50 was 5.00 to 6.00.
For the compound `Cc1ccc(C(=O)Nc2cc(C(=O)NCc3cccnc3)ccc2N2CCN(c3ccccc3C)CC2)o1` [Compound 218, 5-Methyl-furan-2-carboxylic acid [5-[(pyridin-3-ylmethyl)-carbamoyl]-2-(4-o-tolyl-piperazin-1-yl)-phenyl]-amide], the negative-log EC50 (pEC50) is 6.00 to 7.00.
The same measure, in the same setting: next, `Cc1cccc(N2CCN(c3ccc(C(=O)NCCCN4CCCC4=O)cc3NC(=O)c3ccc(C)o3)CC2)c1` [Compound 243]: 5.00 to 6.00; `Cc1ccccc1N1CCN(c2ccc(C(=O)NCCC(=O)N3CCCC3)cc2NC(=O)c2ccco2)CC1` [Compound 120]: 6.00 to 7.00.
With `Cc1nc(C(F)(F)F)c(C(=O)Nc2cc(C(=O)NCCCN3CCCC3=O)ccc2N2CCN(c3ccccc3C)CC2)s1` [Compound 71], the negative-log EC50 (pEC50) is 5.00 to 6.00.
Turning to `Cc1ccccc1N1CCN(c2ccc(C(=O)NCCCN3CCCC3=O)cc2NC(=O)c2ncccc2F)CC1` [Compound 160], the pEC50 was 5.00 to 6.00.
`Cc1ccccc1N1CCN(c2ccc(C(=O)NCCCN3C(=O)CN(C)C3=O)cc2NC(=O)c2ccco2)CC1` [Compound 156]: the negative-log EC50 (pEC50) was 6.00 to 7.00.
Turning to `Cc1cc(C(=O)Nc2cc(C(=O)NCCCN3CCCC3=O)ccc2N2CCN(c3ccccc3C)CC2)c(C(F)(F)F)o1` [Compound 1], the negative logarithm of the EC50 (pEC50) is 6.00 to 7.00.
Consider `Cc1ccccc1N1CCN(c2ccc(C(=O)NCCCN3CCCC3=O)cc2NC(=O)C2CCCO2)CC1` (stereo not drawn) [Compound 92], for which the pEC50 is 5.00 to 6.00.
As for `Cc1ccccc1N1CCN(c2ccc(C(=O)NCCCN3CCCC3=O)cc2NC(=O)c2ccsc2)CC1` [Compound 69], the pEC50 was 6.00 to 7.00.
On the same count and under the same terms, the value for `Cc1ccccc1N1CCN(c2ccc(C(=O)NCCCN)cc2NC(=O)c2ccco2)CC1` [Compound 192] was 6.00 to 7.00; that for `Cc1cnc(C(=O)Nc2cc(C(=O)NCCCN3CCCC3=O)ccc2N2CCN(c3ccccc3C)CC2)s1` [Compound 205] was 6.00 to 7.00.

The experiment is the same for the next values; noted with them: CHO FSHR cells + EC20 FSH; Table 2; read-out: Assay A EC50 of cyclic AMP production.
As for `Cc1ccccc1N1CCN(c2ccc(C(=O)NCCc3cn(C)cn3)cc2N(C(=O)C(F)(F)F)C(=O)C(F)(F)F)CC1` [Compound 548], the negative-log EC50 (pEC50) is 5.00 to 6.00.
For the compound `CCOc1cc(CCCNC(=O)c2ccc(N3CCN(c4ccccc4C)CC3)c(NC(=O)c3coc(C4CC4)n3)c2)ccc1OC` [Compound 580], the pEC50 was 6.00 to 7.00.
On the same count and under the same terms, the value for `Cc1cccnc1N1CCN(c2ccc(C(=O)NCCCN3CCCC3=O)cc2NC(=O)c2coc(C3CC3)n2)CC1` [Compound 439] was > 7.00; that for `Cc1ccccc1N1CCN(c2ccc(C(=O)NCCCN3CCCC3=O)cc2NC(=O)c2cc(C3CC3)n[nH]2)CC1` [Compound 284] was 6.00 to 7.00.
In the case of `Cc1ccccc1N1CCN(c2ccc(C(=O)NCCCn3cccn3)cc2NC(=O)c2coc(C3CC3)n2)CC1` [Compound 275], the negative-log EC50 (pEC50) was 6.00 to 7.00.
On to `Cc1ccccc1N1CCN(c2ccc(C(=O)N[C@H]3CCC[C@H](O)[C@@H]3O)cc2NC(=O)c2coc(C3CC3)n2)CC1` [Compound 578], for which the negative-log EC50 (pEC50) was > 7.00.
The same measure, in the same setting: the value for `Cc1ccccc1N1CCN(c2ccc(C(=O)NCCCc3cccnc3)cc2NC(=O)c2ccco2)CC1` [Compound 469] was 6.00 to 7.00.
With `Cc1ccccc1N1CCN(c2ccc(C(=O)NCC(C)(C)CN3CCCC3=O)cc2NC(=O)c2coc(C3CC3)n2)CC1` [Compound 356], the pEC50 was 6.00 to 7.00.
Turning to `Cc1ccccc1N1CCN(c2ccc(C(=O)NCCCN3C(=O)CSC3=O)cc2NC(=O)c2coc(C3CC3)n2)CC1` [Compound 289], the pEC50 is 6.00 to 7.00.
In the case of `Cc1ccc(C(=O)Nc2cc(C(=O)NCCCN3CCCC3=O)ccc2N2CCN(c3c(C)cccc3C)CC2)o1` [Compound 298], the pEC50 is 5.00 to 6.00.
As to `Cc1ccccc1N1CCN(c2ccc(C(=O)NCCCn3cncn3)cc2NC(=O)c2coc(C3CC3)n2)CC1` [Compound 396], the negative-log EC50 (pEC50) was 6.00 to 7.00.
With `Cc1ccccc1N1CCN(c2ccc(C(=O)NCCCn3ccnc3C)cc2NC(=O)c2coc(C3CC3)n2)CC1` [Compound 292], the pEC50 is 6.00 to 7.00.
With `CN(c1ccccc1)C1CCN(c2ccc(C(=O)NCCCN3CCCC3=O)cc2NC(=O)c2coc(C3CC3)n2)CC1` [Compound 407], the negative-log EC50 (pEC50) was < 5.00.
Consider `Cc1ccccc1N1CCN(c2ccc(C(=O)NCCCN3C(=O)CCC3=O)cc2NC(=O)c2ccc(Br)o2)CC1` [Compound 384], for which the negative-log EC50 (pEC50) was 6.00 to 7.00.
`Cc1ccccc1N1CCN(c2ccc(C(=O)NCCc3cccc(CN(C)C)c3)cc2NC(=O)c2ccco2)CC1` [Compound 437]: the pEC50 is 6.00 to 7.00.
Take `Cc1ccccc1N1CCN(c2ccc(C(=O)NCc3ccccc3CN(C)C)cc2NC(=O)c2ccco2)CC1` [Compound 456]: the negative-log EC50 (pEC50) is 6.00 to 7.00.
Consider `Cc1ccccc1N1CCN(c2ccc(C(=O)NCCCNC(=O)OC(C)(C)C)cc2NC(=O)c2coc(C3CC3)n2)CC1` [Compound 416], for which the pEC50 was 6.00 to 7.00.
Consider `Cc1ccccc1N1CCN(c2ccc(C(=O)NC[C@@H](O)c3ccccc3)cc2NC(=O)c2ccco2)CC1` [Compound 582], for which the pEC50 was 6.00 to 7.00.
Take `Cc1ccccc1N1CCN(c2ccc(C(=O)NC[C@H](O)c3ccccc3)cc2NC(=O)c2coc(C3CC3)n2)CC1` [Compound 566]: the negative logarithm of the EC50 (pEC50) is 6.00 to 7.00.
For the compound `CCn1nc(C2CC2)cc1C(=O)Nc1cc(C(=O)NCCCN2CCCC2=O)ccc1N1CCN(c2ccccc2C)CC1` [Compound 324], the negative-log EC50 (pEC50) was 5.00 to 6.00.
For the compound `CCN(C)Cc1cccc(CNC(=O)c2ccc(N3CCN(c4ccccc4C)CC3)c(NC(=O)c3coc(C4CC4)n3)c2)c1` [Compound 537], the pEC50 is 6.00 to 7.00.
In the case of `Cc1ccccc1N1CCN(c2ccc(C(=O)NCCc3cccc(CN(C)C)c3)cc2NC(=O)c2coc(C3CC3)n2)CC1` [Compound 408], the pEC50 is 6.00 to 7.00.
Consider `Cc1ccccc1N1CCN(c2ccc(C(=O)NCCCN3CCCC3=O)cc2NC(=O)C2CC2(F)F)CC1` (stereo not drawn) [Compound 540], for which the pEC50 is 5.00 to 6.00.
As for `Cc1ccccc1N1CCN(c2ccc(C(=O)N3CC4(COC4)C3)cc2NC(=O)c2coc(C3CC3)n2)CC1` [Compound 590], the pEC50 is 6.00 to 7.00.
Take `Cc1ccccc1N1CCN(c2ccc(C(=O)NCCCC(=O)NC3CCC3)cc2NC(=O)c2coc(C3CC3)n2)CC1` [Compound 363]: the pEC50 is 6.00 to 7.00.
As for `Cc1ccc(C)c(N2CCN(c3ccc(C(=O)NCCCN4CCCC4=O)cc3NC(=O)c3ccc(C)o3)CC2)c1` [Compound 519], the negative logarithm of the EC50 (pEC50) is 6.00 to 7.00.
On the same count and under the same terms, the value for `Cc1ccccc1N1CCN(c2ccc(C(=O)NCC(C)CN3CCCC3=O)cc2NC(=O)c2ccco2)CC1` (stereo not drawn) [Compound 280] was 6.00 to 7.00.

One may read the pEC50 as the negative decadic logarithm of the EC50, by convention in mol/L.
